Assay results reported in patent US10815224B2, “Monocyclic heteroaryl substituted compounds” (Bristol-Myers Squibb Company, priority 2016, dated 2020).
pIC50: −log10 of the molar value.

Test system: ACS patients
Test: not given
Details: TRACER phase III trial; cited from earlier work

Compound | Cardiovascular events | Risk of major bleeding
CCOC(=O)N[C@@H]1CC[C@@H]2[C@@H](C1)C[C@H]1C(=O)O[C@H](C)[C@H]1[C@H]2/C=C/c1ccc(-c2cccc(F)c2)cn1 [vorapaxar] | did not significantly reduce cardiovascular events | significantly increased the risk of major bleeding

Target: T1, PAR4 (Homo sapiens, UniProt Q96RI0)
T1 construct: expressed in transfected cells; host or cells: HEK293 PAR4 Clone 1.2A (BMS Arctic ID 383940)
T1 sequence (Q96RI0 18-385): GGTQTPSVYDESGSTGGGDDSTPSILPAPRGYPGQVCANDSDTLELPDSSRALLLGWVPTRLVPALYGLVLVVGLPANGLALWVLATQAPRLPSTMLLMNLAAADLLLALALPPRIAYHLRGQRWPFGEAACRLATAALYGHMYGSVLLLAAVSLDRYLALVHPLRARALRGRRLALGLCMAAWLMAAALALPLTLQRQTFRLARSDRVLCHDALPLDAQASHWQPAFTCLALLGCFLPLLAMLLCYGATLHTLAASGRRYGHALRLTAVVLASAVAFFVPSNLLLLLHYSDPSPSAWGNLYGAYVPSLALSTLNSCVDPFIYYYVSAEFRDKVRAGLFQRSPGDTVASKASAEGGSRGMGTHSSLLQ
Test: PAR4 FLIPR assay: calcium mobilization in PAR4-expressing HEK293 cells
Assay type: cell-based
Details: not given
Excerpt: The FLIPR assay is an exemplary in vitro assay for measuring the activity of the PAR4 antagonists of the present invention. In this assay, intracellular calcium mobilization is induced in PAR4 expressing cells by a PAR4 agonist and calcium mobilization is monitored.
HEK293 cells stably expressing PAR4 were generated by a standard method of transfection of human PAR4 (F2R23) cDNA expression vector and selected based on PAR4 protein expression or mRNA expression. […] Therefore, the same cells were also used to determine selectivity against PAR1 and agonist activity for both receptors.
FLIPR-based calcium mobilization assay in HEK293 cells was used to measure PAR4 antagonism, agonism, and selectivity against PAR1. […] Counter screens for agonist activity and PAR1 antagonist activity were also performed. […] Cells were plated overnight prior to the experiment in a black 384-well Purecoat Amine clear bottom plate (Becton Dickinson Biosciences, San Jose, Calif.) at 10,000 cells/well in 30 μL growth medium and incubated in a humidified chamber at 37° C. with 5% CO2 overnight. Prior to compound addition, the cell medium was replaced with 40 μL of 1× calcium and magnesium-containing Hank's Balanced Saline Solution (HBSS) (with 20 mM HEPES) and 1:1000 diluted fluorescent calcium indicator (Codex Biosolutions, Gaithersburg, Md.). After a 30 minute incubation period at 37° C., and a further 30 minute incubation and equilibration period at room temperature, 20 μL test compound (diluted in 1×HBSS buffer) was added at various concentrations at 0.17% dimethyl sulfoxide (DMSO) final concentration. Changes in fluorescence intensity were measured using a Functional Drug Screening System (FDSS, Hamamatsu, Japan) to determine agonist activities. The cells were then incubated for 30 minutes at room temperature followed by addition of 20 μL of agonist peptide for antagonist activity measurement. […] Compound potency was derived from 11-point concentration-response curves.

Compound | pIC50
Cc1cc(-c2nccs2)c2ncc(OC(F)F)nc2c1 [Example 34, 2-(2-(difluoromethoxy)-7-methylquinoxalin-5-yl)thiazole] | 6.12
Cc1cc(-c2nnc(-c3ccccc3)s2)c2ncc(OC(F)F)nc2c1 [Example 35, 2-(2-(difluoromethoxy)-7-methylquinoxalin-5-yl)-5-phenyl-1,3,4-thiadiazole] | 7.60
Cc1cc(-c2nc(C)cs2)c2ncc(OC(F)F)nc2c1 [Example 36, 2-(2-(difluoromethoxy)-7-methylquinoxalin-5-yl)-4-methylthiazole] | 7.19
Cc1cc(-c2ncc(-c3cccc4cc[nH]c34)s2)c2ncc(OC(F)F)nc2c1 [Example 37, 2-(2-(difluoromethoxy)-7-methylquinoxalin-5-yl)-5-(1H-indol-7-yl)thiazole] | 7.22
Cc1cc(-c2ncc(-c3cccc4[nH]ccc34)s2)c2ncc(OC(F)F)nc2c1 [Example 38, 2-(2-(difluoromethoxy)-7-methylquinoxalin-5-yl)-5-(l H-indol-4-yl)thiazole] | 6.09
Cc1cc(-c2ncc(CO)s2)c2ncc(OC(F)F)nc2c1 [Example 39, (2-(2-(difluoromethoxy)-7-methylquinoxalin-5-yl)thiazol-5-yl)methanol] | 5.70
Cc1cc(-c2ncc(-c3ccn[nH]3)s2)c2ncc(OC(F)F)nc2c1 [Example 40, 2-(2-(difluoromethoxy)-7-methylquinoxalin-5-yl)-5-(1H-pyrazol-5-yl)thiazole] | 7.64
Cc1cc(-c2ncc(-c3ccc4cc[nH]c4c3)s2)c2ncc(OC(F)F)nc2c1 [Example 42, 2-(2-(difluoromethoxy)-7-methylquinoxalin-5-yl)-5-(1H-indol-6-yl)thiazole] | 7.09
Cc1cc(-c2ncc(-c3ccncc3)s2)c2ncc(OC(F)F)nc2c1 [Example 43, 2-(2-(difluoromethoxy)-7-methylquinoxalin-5-yl)-5-(pyridin-4-yl)thiazole] | 6.48
Cc1cc(-c2ncc(-c3ccccn3)s2)c2ncc(OC(F)F)nc2c1 [Example 44, 2-(2-(difluoromethoxy)-7-methylquinoxalin-5-yl)-5-(pyridin-2-yl)thiazole] | 7.10
COc1cnc2c(-c3ncc(-c4ccccc4C(F)F)s3)cc(C)cc2n1 [Example 45, 5-(2-(difluoromethyl)phenyl)-2-(2-methoxy-7-methylquinoxalin-5-yl)thiazole] | 7.60
COc1cnc2c(-c3ncc(-c4cc(O)c(F)c(F)c4)s3)cc(C)cc2n1 [Example 46, 2,3-difluoro-5-(2-(2-methoxy-7-methylquinoxalin-5-yl)thiazol-5-yl)phenol] | 7.85
COc1cnc2c(-c3nc(C(F)(F)F)c(C(=O)C4CCCCC4)s3)cc(C)cc2n1 [Example 47, Cyclohexyl(2-(2-methoxy-7-methylquinoxalin-5-yl)-4-(trifluoromethyl)thiazol-5-yl) methanone] | 7.28
COCc1cnc2c(-c3ncc(-c4ccn[nH]4)s3)cc(C)cc2n1 [Example 48, 2-(2-(methoxymethyl)-7-methylquinoxalin-5-yl)-5-(1H-pyrazol-5-yl)thiazole] | 8.51
COCc1cnc2c(-c3ncc(-c4cccc(O)c4)s3)cc(C)cc2n1 [Example 49, 3-(2-(2-(methoxymethyl)-7-methylquinoxalin-5-yl)thiazol-5-yl)phenol] | 7.72
COCc1cnc2c(-c3ncc(-c4cc(F)ccc4O)s3)cc(C)cc2n1 [Example 50, 4-fluoro-2-(2-(2-(methoxymethyl)-7-methylquinoxalin-5-yl)thiazol-5-yl)phenol] | 8.24
Cc1cc(-c2ncc(-c3cccc(O)c3)s2)c2ncc(OC(F)F)nc2c1 [Example 51, 3-(2-(2-(difluoromethoxy)-7-methylquinoxalin-5-yl)thiazol-5-yl)phenol] | 8.15
COc1ccc(-c2cnc(-c3cc(C)cc4nc(OC)cnc34)s2)nc1 [Example 52, 2-(2-methoxy-7-methylquinoxalin-5-yl)-5-(5-methoxypyridin-2-yl)thiazole] | 6.26
COCc1cnc2c(-c3ncc(-c4ccc(OC)cn4)s3)cc(C)cc2n1 [Example 53, 2-(2-(methoxymethyl)-7-methylquinoxalin-5-yl)-5-(5-methoxypyridin-2-yl)thiazole] | 6.54

Same assay, conditions: HEK293 cells expressing human PAR4; calcium mobilization induced by H-Ala-Phe(4-F)-Pro-Gly-Trp-Leu-Val-Lys-Asn-Gly-NH2

Compound | pIC50
Cc1cc(-c2nc(C(C)(C)C)cs2)c2ncc(OC(F)F)nc2c1 [Example 41] | 6.35

Target: T2, protease-activated receptor type 4 (PAR4) (Homo sapiens, UniProt Q96RI0)
T2 sequence (Q96RI0 18-385): T1 sequence (Q96RI0 18-385)
Test: not given
Details: abstract of Lee et al. 2001; cited from earlier work

Compound | Inhibition of PAR4-dependent platelet activation
CCOC(=O)c1ccc(-c2nn(Cc3ccccc3)c3ccccc23)cc1 [YD-3, ethyl 4-(1-benzyl-1H-indazol-3-yl)benzoate] | selective and potent inhibitor
